Reference: article PMC10376326, “Novel Acylselenourea Derivatives: Dual Molecules with Anticancer and Radical Scavenging Activity” (Antioxidants, 2023)

How the values were obtained:
[1] = tested on: DU-145 (prostate) cancer cell line; test: MTT cell viability assay, DU-145; assay type: cell-based, human; settings: Homo sapiens, DU-145, 48 h; for activity at 10 µM: read-out: Cell growth %, DU-145, 10 µM, 48 h, MTT; for activity at 50 µM: read-out: Cell growth %, DU-145, 50 µM, 48 h, MTT
Procedure, shortened: (§1)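 MDA-MB-231, HTB-54 and DU-145 grown in RPMI 1640, HT-29 in McCoy's 5A (10% FBS). Output is % cell growth; IC50 determined; ≥3 experiments in quadruplicate.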

[2] = tested on: HT-29 (colon) cancer cell line; test: MTT cell viability assay, HT-29; assay type: cell-based; settings: Homo sapiens, HT-29, 48 h, read-out: Cell growth %; for activity at 10 µM: HT-29, 10 µM; for activity at 50 µM: HT-29, 50 µM
Procedure, shortened: as §1

[3] = tested on: MDA-MB-231 (breast) cancer cell line; test: MTT cell viability assay, MDA-MB-231; assay type: cell-based, human; settings: Homo sapiens, MDA-MB-231, 48 h; for activity at 10 µM: read-out: Cell growth %, MDA-MB-231, 10 µM, 48 h, MTT; for activity at 50 µM: read-out: Cell growth %, MDA-MB-231, 50 µM, 48 h, MTT
Procedure, shortened: as §1

[4] = tested on: MDA-MB-231, HT-29, HTB-54 and DU-145 cancer cell lines; test: MTT cell viability assay, statements over the panel of cancer cell lines; assay type: cell-based, human
Procedure: (§2) Cell lines were purchased from the American Type Culture Collection (ATCC). Cell lines MDA-MB-231, HTB-54, DU-145, and BEAS-2B were cultured in RPMI 1640 medium (Gibco, Thermo Fisher Scientific, Gaithersburg, MD, USA) supplemented with 10% fetal bovine serum (FBS; Gibco), 100 units/mL penicillin, and […] streptomycin (Gibco). HT-29 cell line was grown in McCoy’s 5A (Gibco), 10% FBS, 100 units/mL penicillin, and 100 μg/mL streptomycin. Cells were maintained at 37 °C and 5% CO2. The culture medium was changed every three days.
(§3) The cell viability of each compound was measured by MTT colorimetric assay. Each compound was dissolved in DMSO at a concentration of 0.01 M. Each compound was tested at two different concentrations (10 and 50 µM) in MDA-MB-231 (breast), HTB-54 (lung), DU-145 (prostate), and HT-29 (colon) human cancer cell lines. Serial dilutions were prepared with supplemented culture medium. […] IC50 and selectivity indexes (SI) were determined.
(§4) Briefly, 1 × 10^4 tumor cells per well were grown in 96-well plates for 24 h. Then, these cells were incubated for 48 h with either DMSO (control) or a different concentration of each of the tested compounds. The cell viability was determined by adding 20 μL of MTT two hours and a half before the termination point. After this time, the culture medium was removed. The resulting formazan crystals were dissolved in 50 μL of DMSO, and the absorbance was measured at 570 nm. Results are expressed as % cell growth. The data were obtained from at least three independent experiments performed in quadruplicate.

[5] = DPPH radical scavenging assay; assay type: biochemical
Procedure, shortened: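 Acylselenoureas at 0.003 and 0.03 mg/mL (final dilutions from DMSO stock, via methanol) mixed with DPPH• prepared at 0.04 mg/mL in methanol. Absorbance decrease at 517 nm followed 0–120 min; % scavenging calculated relative to negative control, triplicates.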

[6] = tested on: HTB-54 (lung) cancer cell line; test: MTT cell viability assay, HTB-54; assay type: cell-based, human; settings: for activity at 10 µM / activity at 50 µM: Homo sapiens, HTB-54, 48 h; for activity at 10 µM: read-out: Cell growth %, HTB-54, 10 µM, 48 h, MTT; for activity at 50 µM: read-out: Cell growth %, HTB-54, 50 µM, 48 h, MTT
[7] = tested on: DU-145 cells; test: Protective effects against H2O2-induced oxidative stress in DU-145 cells (MTT); assay type: cell-based, human; settings: increase-fold of cell survival
Procedure: Cells were treated with the selected compounds and then oxidative damage to DU-145 cells was induced using different concentrations of H2O2 (200, 250 and 300 µM), and cell viability was assessed by the MTT method. Briefly, 2.5 × 10^4 DU-145 cells per well were added in 96-well plates. After 24 h of incubation, DMSO, 1.I, 2.I, 5.I, 7.II, 10.II, and ascorbic acid were added to each well at two different concentrations (0.0015 mg/mL and 0.0003 mg/mL) and incubated for 1 h. After that, H2O2 was added at the concentrations of 200, 250, and 300 µM, and the cells were incubated for 12 h to induce cell damage. MTT assay was used to measure cell viability. For each treatment, the mean cell viability was calculated from three independent experiments. The DMSO-treated controls were assigned with a cell viability value of 100% (Vcontrol). The results are expressed as a cell growth inhibition % caused by H2O2 and the increased fold of cell survival, as follows: • Cells without compounds, only treated with H2O2: (2) % Cell growth inhibition=Acontrol - Asample/Acontrol × 100
• Cells treated with compounds and H2O2:
(3) % Cell growth inhibition=Asample (compound) - Asample (compound+H2O2)/Acontrol × 100
(4) Increase-fold of cell survival=% cell growth inhibition (H2O2)/% cell growth inhibition (compound+ H2O2)
The standard error of the mean (SEM) was calculated in at least three independent experiments performed in quadruplicates.

[8] = tested on: non-malignant BEAS-2B lung cell line; test: MTT cell viability assay, BEAS-2B; assay type: cell-based; settings: Homo sapiens, normal lung, 48 h
Procedure: as §2, §3, §4

Row | SMILES | activity at 10 µM [1] | activity at 50 µM [1] | activity at 50 µM [2] | activity at 10 µM [3] | activity at 50 µM [3] | inhibition ([5]; 0.003 mg/mL, 0 min) | inhibition ([5]; 0.003 mg/mL, 5 min) | inhibition ([5]; 0.003 mg/mL, 15 min) | inhibition ([5]; 0.003 mg/mL, 30 min) | inhibition ([5]; 0.003 mg/mL, 60 min) | inhibition ([5]; 0.003 mg/mL, 90 min) | inhibition ([5]; 0.003 mg/mL, 120 min) | inhibition ([5]; 0.03 mg/mL, 0 min) | inhibition ([5]; 0.03 mg/mL, 5 min) | inhibition ([5]; 0.03 mg/mL, 15 min) | inhibition ([5]; 0.03 mg/mL, 30 min) | inhibition ([5]; 0.03 mg/mL, 60 min) | inhibition ([5]; 0.03 mg/mL, 90 min) | inhibition ([5]; 0.03 mg/mL, 120 min) | activity at 10 µM [6] | further results
1 | C=CCNC(=[Se])NC(=O)/C=C/c1ccco1 [Compound 3.II, (E)-N-(allylcarbamoselenoyl)-3-(furan-2-yl)acrylamide] | 93.6 ± 14.7% | 10.4 ± 4.1% | 33.2 ± 6.1% | 79.6 ± 7.7% | 14.1 ± 5.8% | 0% | 0% | 0% | 0.5 ± 2.9% | 1.7 ± 2.9% | 2.5 ± 2.9% | 3.3 ± 2.9% | 0.7 ± 2.7% | 5.2 ± 1.8% | 9 ± 1.6% | 14.3 ± 1.1% | 23.7 ± 0.8% | 31.7 ± 0.1% | 39.6 ± 0.1% | 73.1 ± 3% | activity at 10 µM [2]: 63.3 ± 15%; cell growth % ([4]; 10 µM, over the four cancer cell lines): 54.8–95.0%; activity at 50 µM [6]: 35.4 ± 8.9%; melting point: 104 to 105 °C
2 | C#CCNC(=[Se])NC(=O)/C=C/c1ccco1 [Compound 3.III, (E)-3-(furan-2-yl)-N-(prop-2-in-1-ylcarbamoselenoyl)acrylamide] | 86.5 ± 9.3% | 24.7 ± 4.9% | 51.4 ± 6% | 66.8 ± 7.2% | 20.1 ± 8% | 0.9 ± 1.9% | 1.2 ± 1.8% | 1.9 ± 1.7% | 2.7 ± 1.7% | 4.1 ± 1.7% | 5.3 ± 1.7% | 6.2 ± 1.6% | 2.6 ± 1.3% | 6.3 ± 1.1% | 10.9 ± 0.9% | 17.5 ± 0.4% | 28.4 ± 0.4% | 37.1 ± 0.3% | 45.9 ± 0.6% | 74.2 ± 4% | activity at 50 µM [6]: 35.3 ± 5.7%; melting point: 118 to 119 °C
3 | C=CCNC(=[Se])NC(=O)/C=C/c1cccs1 [Compound 4.II, (E)-N-(allylcarbamoselenoyl)-3-(thiophen-2-yl)acrylamide] | 67.2 ± 7.1% | 13.8 ± 1.2% | 32.9 ± 5% | 81.1 ± 6.7% | 17.6 ± 6.6% | 0% | 0% | 0% | 0.5 ± 2.5% | 1.7 ± 2.4% | 2.5 ± 2.4% | 3.1 ± 2.3% | 0.9 ± 2.8% | 6.1 ± 1.7% | 9.9 ± 1.5% | 15.5 ± 1.4% | 25.6 ± 1.3% | 35 ± 0.6% | 44.3 ± 0.6% | 79.2 ± 9.2% | activity at 10 µM [2]: 100 ± 7.1%; activity at 50 µM [6]: 44.2 ± 6.2%; melting point: 104 to 105 °C
4 | CCCNC(=[Se])NC(=O)/C=C/c1ccccc1 [Compound 6.I, N-(propylcarbamoselenoyl)cinnamamide] | 19.5 ± 2% | 12.6 ± 1% | 25.1 ± 5% | 88.4 ± 16.3% | 23.5 ± 12.9% | 1.5 ± 0.5% | 2 ± 0.8% | 2.5 ± 0.8% | 3.1 ± 0.6% | 4.4 ± 0.6% | 5.6 ± 0.7% | 6.6 ± 0.8% | 2.3 ± 1% | 10.1 ± 1.1% | 15.4 ± 1.3% | 21.8 ± 1.1% | 35.1 ± 1.2% | 50.2 ± 0.8% | 66.4 ± 0.2% | 84.6 ± 5.9% | activity at 10 µM [2]: 60.4 ± 9.7%; activity at 50 µM [6]: 36.2 ± 5.7%; melting point: 125 to 126 °C
5 | C=CCNC(=[Se])NC(=O)/C=C/c1ccc2c(c1)OCO2 [Compound 9.II, (E)-N-(allylcarbamoselenoyl)-3-(benzo[d][1,3]dioxol-5-yl)acrylamide] | 110 ± 9% | 69.6 ± 6.1% | 103 ± 7.1% | 83.8 ± 7.9% | 71.3 ± 5.3% | 0.1 ± 2.9% | 0.3 ± 2.7% | 0.8 ± 2.5% | 1.5 ± 2.4% | 2.3 ± 2.3% | 3 ± 2.3% | 3.5 ± 2.3% | 1.9 ± 1.9% | 6.1 ± 1.7% | 10.1 ± 1.2% | 14.7 ± 1.1% | 22.3 ± 1.2% | 29 ± 1.2% | 35.2 ± 1.3% | 82.8 ± 2.8% | activity at 10 µM [2]: 113 ± 7.8%; cell growth % ([6]; HTB-54, 10 µM, 48 h, MTT): 82.8%; activity at 50 µM [6]: 60 ± 4.5%; melting point: 187 to 188 °C
6 | C=CCNC(=[Se])NC(=O)c1cccc(C(=O)NC(=[Se])NCC=C)c1 [Compound 10.II, N^1,N^3-bis(allylcarbamoselenoyl)isophthalamide] | 18.1 ± 2.7% | 18.8 ± 3.1% | 46.4 ± 4.8% | 24.8 ± 6.1% | 21 ± 9.4% | 0.9 ± 1.8% | 6.7 ± 1.7% | 11.5 ± 1.5% | 14.7 ± 1.2% | 17.7 ± 1.1% | 19 ± 0.9% | 19.7 ± 0.9% | 31.6 ± 4.1% | 69.1 ± 0.1% | 86.3 ± 0.9% | 94.4 ± 0.7% | 96.1 ± 0.1% | 96 ± 0.2% | 96 ± 0.3% | 52.6 ± 10.5% | activity at 10 µM [2]: 47.8 ± 8.7%; cell growth ([4]; in at least three of the four cancer cell lines tested): below 55%; Increase-fold ([7]; compound 0.0003 mg/mL, 200 µM H2O2, DU-145): 0.8 ± 0.4; Increase-fold ([7]; compound 0.0003 mg/mL, 250 µM H2O2, DU-145): 1.0 ± 0.3; Increase-fold ([7]; compound 0.0003 mg/mL, 300 µM H2O2, DU-145): 1.0 ± 0.2; Increase-fold ([7]; compound 0.0015 mg/mL, 200 µM H2O2, DU-145): 1.0 ± 0.6; Increase-fold ([7]; compound 0.0015 mg/mL, 250 µM H2O2, DU-145): 1.1 ± 0.2; Increase-fold ([7]; compound 0.0015 mg/mL, 300 µM H2O2, DU-145): 1.1 ± 0.2; IC50 [8]: 29.9 ± 5 µM; time to reach the highest DPPH inhibition ([5]; 0.03 mg/mL): 60 min; activity at 50 µM [6]: 43.5 ± 17.6%; SI ([6]; IC50 (BEAS-2B)/IC50 (HTB-54)): 0.7
